Measured values taken from US12285528B2, “Injectable formulations of anesthetics for any pathological pain” (New Jersey Institute of Technology, priority 2018, dated 2025).

What was measured:
Format in all cases: in vivo, rat
[1] = test system: myelin basic protein (MBP) of sciatic nerve; experiment: Immunohistochemistry, MBP expression pattern of sciatic nerve; conditions: 0.25%, 11 days post injection
Method: Immunohistochemistry analysis were performed as described previously in Y. X. Tao, et al., Nerve injury-induced epigenetic silencing of opioid receptors controlled by DNMT3a in primary afferent neurons, Pain, 158 (2017) 1153-1165. The rats were anesthetized with isoflurane and perfused with 300 mL of 4% paraformaldehyde in 0.1 M phosphate-buffered saline (PBS) (pH 7.4). After perfusion, sciatic nerves were dissected, postfixed at 4° C. for 4 hours and cryoprotected in 30% sucrose overnight. The transverse and longitudinal sections were cut on a cryostat at a thickness of 20 μm. The sections were blocked for 1 hour at 25° C. in 0.01M PBS containing 5% goat serum and 0.3% Triton X-100. Sections were incubated overnight at 4° C. with mouse anti-myelin basic protein (MBP) (1:500; Biolegend, San Diego, CA). The sections were then incubated with a mixture of goat anti-mouse antibody conjugated to Cy2 (1:500; Jackson ImmunoResearch, West Grove, PA) for 2 hours at room temperature. Immunofluorescence-labeled images were generated using a Leica DMI4000 fluorescence microscope with a DFC365FX camera (Leica, Germany).
To examine whether injection of SRR injured the nerve fiber, we investigated the MBP expression pattern of sciatic nerve on 11 days post injection of PBS, PLGA, 0.25% FR, and 0.25% SRR (n=3 for each group).

[2] = test system: sciatic nerve and surrounding tissues; experiment: Histology (H&E) of sciatic nerve and surrounding tissues; conditions: 0.25%, 11 days after injection
Source text: The rats were anesthetized with isoflurane and sciatic nerves were harvested and fixed in 4% paraformaldehyde. Following tissue fixation and dehydration, sciatic nerves were embedded in Optimal cutting temperature compound (OCT compound) and 20-μm thin slices were cut on a cryostat, then stained using hematoxylin and eosin stain technique. Nerve structures were observed using a Nikon microscope (Nikon Eclipse 80i, Japan). Rats injected with PBS, PLGA, 0.25% FR (i.e., 0.25% Free ROPI), and 0.25% SRR (i.e., 0.25% PLGA-ROPI) were euthanized 11 days after injection (n=3 for each group), and the sciatic nerve and surrounding tissues were harvested, sectioned for histology, and stained with hematoxylin-eosin (H&E). SRR were not observed on gross dissection.

[3] = test system: sciatic nerve myelin sheath; experiment: Transmission electron microscopy, ultrastructure of sciatic nerve; conditions: 0.25%; day 11 after injection; ipsilateral sciatic nerve; no significant difference among groups
Method: The rats were anesthetized with isoflurane and perfused with 300 mL of 2.5% gluteraldehyde in 0.1M sodium cacodylate buffer (pH 7.4). After perfusion, sciatic nerves were dissected, postfixed at 4° C. for 3 hours. After dehydrated by gradient ethanol elution, samples were cleared by propylene, then infiltrated with resin and embed in moulds. Transmission electronic microscopy images were acquired by a Hitachi H-7500 transmission electron microscope (Hitachi, Ltd. Japan). To observe the ultrastructure of sciatic nerve after injection, we harvested ipsilateral sciatic nerves on day 11 after injection of PBS. PLGA, 0.25% FR, and 0.25% SRR (n=3 for each group), then processed the tissue to be examined under TEM. […] Specific features of the degeneration of myelin sheath including thinner lamellae, loose lamellae, split myelin lamellae with discontinuities, or vacuole-like inclusions in the cytoplasm of Schwann cells were not observed in any of the nerve tissue.

[4] = test system: incision-induced thermal pain hypersensitivity; experiment: Incisional pain model, heat allodynia (paw withdrawal latency) after peri-sciatic nerve injection; conditions: 0.25%, P<0.05
Method: (§1) Male and female Sprague-Dawley rats weighing 200-250 g were obtained from Charles River Laboratories (Wilmington, MA). All rats were housed in an animal facility that was kept in a standard 12-h light/dark cycle, with standard laboratory water and food pellets available ad libitum. Animal experiments were conducted with the approval of the Animal Care and Use Committee at Rutgers-New Jersey Medical School and were consistent with the ethical guidelines of the US National Institutes of Health and the International Association for the Study of Pain. All efforts were made to minimize animal suffering and to reduce the number of animals used. To minimize intra- and inter-individual variability of behavioral outcome measures, animals were trained for 1-2 days before behavioral testing was performed. The experimenters were blinded to treatment condition during behavioral testing.
(§2) The incisional surgery was carried out with minor modification as described in T. J. Brennan, et al., Characterization of a rat model of incisional pain, Pain, 64 (1996) 493-501. Rats were anesthetized with 2% isoflurane delivered via a nose cone. The plantar aspect of the left hindpaw was prepared in a sterile manner with a 10% povidone-iodine solution. A 1-cm longitudinal incision was made with a number 11 blade, through skin and fascia of the plantar aspect of the foot, starting 0.5 cm from the proximal edge of the heel and extending toward the toes. The plantaris muscle was elevated and incised longitudinally. After hemostasis with gentle pressure, the skin was sutured with 5-0 nylon thread. The wound site was covered with a mixture of polymixin B, neomycin, and bacitracin ointment. After surgery, the animals were allowed to recover in their cages.
(§3) The rats received sciatic nerve block under inhalation anesthesia with isoflurane. Nerve block injections were performed with a 20-gauge needle under isoflurane-oxygen anesthesia as described in J. G. Thalhammer, et al., Neurologic evaluation of the rat during sciatic nerve block with lidocaine, Anesthesiology, 82 (1995) 1013-1025. […]

locomotor function = experiment: Locomotor function test (placing, grasping, righting reflexes); conditions: 0.25%
Method: The rats were divided into different groups according to the different pain model performed (incisional pain model or SNI model), and were injected with 0.2 mL of a sustained-release ropivacaine hydrochloride PBS solution (SRR or alternatively, PLGA-ROPI) containing 0.25%, 0.125%, and 0.06% of PLGA-ROPI or PLGA-RVC·HCl, a PBS solution containing 0.25% free ropivacaine (FR or alternatively, Free-ROPI), and 2 control solutions of a neat PBS, and a neat PLGA, respectively. The % used here refers to the weight (gram %) of PLGA-ROPI or PLGA-RVC·HCl by the volume (mL) of the solution. For example, 0.25% refers to 0.25 g/100 mL. The animals were divided into 10 groups: incision+0.25% SRR, incision+0.125% SRR, incision+0.06% SRR, incision+0.25% FR, incision+PLGA, incision+PBS. SNI+0.25% SRR, SNI+0.125% SRR, SNI+0.06% SRR, SNI+PBS. Each group contained 8 rats. […] For the SNI model, mechanical and cold allodynia with 1 h intervals were used to examine rats 1 d before surgery and 7 d post-surgery, post peri-sciatic nerve injection on 7 d post-surgery, and the behavior test was resumed on d8, d10, d12, d14, d16, d19, and d22. Tests of locomotor function, including placing, grasping and righting reflexes, were performed before and after incision surgery according to the previously described protocol in Y. X. Tao, et al., Impaired neuropathic pain and preserved acute pain in rats overexpressing voltage-gated potassium channel subunit Kv1.2 in primary afferent neurons, Molecular Pain, 10 (2014) 8. (1) Placing reflex: The rat was held with hind limbs slightly lower than the forelimbs and the dorsal surfaces of the hind paws were brought into contact with the edge of a table. Whether the hind paws were placed on the table surface reflexively was recorded; (2) Grasping reflex: The rat was placed on a wire grid and whether the hind paws grasped the wire on contact was recorded; (3) Righting reflex: The rat's back was placed on a flat surface and whether it immediately assumed the normal upright position was recorded. […] In addition, the animal's general behaviors, including spontaneous activity (e.g. walking and running), were observed.

[5] = test system: postsurgical pain (hindpaw plantar incision); experiment: Incisional pain model, overall analgesic effect (mechanical and heat) after peri-sciatic nerve injection; conditions: 0.25%, 0.2 mL peri-sciatic
Method: as §1
The incisional surgery was carried out with minor modification as described in T. J. Brennan, et al., Characterization of a rat model of incisional pain, Pain, 64 (1996) 493-501. Rats were anesthetized with 2% isoflurane delivered via a nose cone. The plantar aspect of the left hindpaw was prepared in a sterile manner with a 10% povidone-iodine solution. […]

[6] = test system: incision-induced mechanical pain hypersensitivity; experiment: Incisional pain model, mechanical allodynia (paw withdrawal threshold, von Frey) after peri-sciatic nerve injection; conditions: 0.25%, 0.2 mL peri-sciatic, P<0.05
Method: as §1, §2, §3

[7] = 2 h, normal reflexes in five trials

**Q.** Which results are given for `CCCN1CCCC[C@H]1C(=O)Nc1c(C)cccc1C` [FR, ropivacaine]?
**A.** MBP expression pattern / myelin morphology [1]: no abnormality was observed; inflammation on microscopic examination (H&E) [2]: no significant inflammation; myelin sheath ultrastructure (TEM) [3]: intact and tightly laminated without any discontinuities; increase of paw withdrawal latency to heat stimulation vs incision+PBS ([4]; 0.2 mL peri-sciatic, 2 h after surgery): 29%; increase of paw withdrawal latency to heat stimulation vs incision+PBS ([4]; 4 h after surgery): 33%; increase of paw withdrawal latency to heat stimulation vs incision+PBS ([4]; 12 h after surgery): 18%; Grasping reflex score (locomotor function; [7]): 4.38(0.63); Placing reflex score (locomotor function; [7]): 5(0); Righting reflex score (locomotor function; [7]): 5(0); Grasping reflex score (locomotor function; 12 h): 5(0); Placing reflex score (locomotor function; 12 h): 5(0); Righting reflex score (locomotor function; 12 h): 5(0); Grasping reflex score (locomotor function; 1 d): 5(0); Placing reflex score (locomotor function; 1 d): 5(0); Righting reflex score (locomotor function; 1 d): 5(0); locomotor function (locomotor function; first 2 h after surgery, statistics showed no significant difference): slightly altered; period of analgesic effect [5]: ≤ 24 h post injection; increase of paw withdrawal threshold to mechanical stimulation vs incision+PBS ([6]; 2 h after surgery): 76%; increase of paw withdrawal threshold to mechanical stimulation vs incision+PBS ([6]; 4 h after surgery): 59%; increase of paw withdrawal threshold to mechanical stimulation vs incision+PBS ([6]; 12 h after surgery): 71%
